Measurements from ChEMBL document CHEMBL2150979, “Xentrivalpeptides A-Q: depsipeptide diversification in Xenorhabdus” (J Nat Prod, 2012).
Active and inactive are the calls of the source. No cut-off for these calls is given here.

Tests used:
Escherichia coli = test: Antibacterial activity against Escherichia coli; format: functional, organism-based
Pseudomonas aeruginosa = test: Antibacterial activity against Pseudomonas aeruginosa; format: functional, organism-based
Enterococcus faecalis = test: Antibacterial activity against Enterococcus faecalis; format: functional, organism-based
Staphylococcus aureus = test: Antibacterial activity against Staphylococcus aureus; format: functional, organism-based
[1] = system: Staphylococcus epidermidis; test: Antibacterial activity against Staphylococcus epidermidis; format: functional, organism-based
Micrococcus luteus = test: Antibacterial activity against Micrococcus luteus; format: functional, organism-based
Bacillus subtilis = test: Antibacterial activity against Bacillus subtilis; format: functional, organism-based
Saccharomyces cerevisiae = test: Antifungal activity against Saccharomyces cerevisiae; format: functional, organism-based
L929 = test: Cytotoxicity against mouse L929 cells after 5 days by MTT assay; format: cell-based; details: l929, 120 h
HL-60 = test: Cytotoxicity against human HL60 cells after 5 days by MTT assay; format: functional, cell-based
Galleria mellonella = test: Hemocyte cytotoxicity against Galleria mellonella larvae assessed as actin cytoskeletal ruffling at 100 ug/mL after 4 hrs; format: organism-based; details: in vivo

SMILES: CC(C)[C@H](NC(=O)Cc1ccccc1)C(=O)N[C@@H]1C(=O)N[C@H](Cc2ccccc2)C(=O)N2CCC[C@H]2C(=O)N[C@@H](C(C)C)C(=O)N[C@@H](C(C)C)C(=O)N[C@@H](C(C)C)C(=O)O[C@@H]1C [XENTRIVALPEPTIDE A]
- Activity (Escherichia coli): inactive
- Activity (Pseudomonas aeruginosa): inactive
- Activity (Enterococcus faecalis): inactive
- Activity (Staphylococcus aureus): inactive
- Activity [1]: inactive
- Activity (Micrococcus luteus): inactive
- Activity (Bacillus subtilis): inactive
- Activity (Saccharomyces cerevisiae): inactive
- Activity (L929): Non-toxic
- Activity (HL-60): inactive
- Activity (Galleria mellonella): Toxic
